From ChEMBL document CHEMBL1201862, “PubChem BioAssay data set” (2004)
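Exposure lasted 48 hours, with cells grown in 96-well plates and compounds tested at five concentrations. GI50 marks 50% less growth.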 The source made the active and inactive calls. Rule as the data show it: active = GI50 up to about 1.1 µM and inactive = higher.

What was measured:
Test in all cases: inhibition of tumour cell growth, NCI panel, 48 h
[1] = test system: HCT-15
[2] = test system: COLO 205
[3] = test system: SW-620
[4] = test system: SNB-75
[5] = test system: HOP-62
[6] = test system: DU-145
[7] = test system: SF-539
[8] = test system: SNB-19
[9] = test system: HL-60
[10] = test system: RXF 393
[11] = test system: K562
[12] = test system: HT-29
[13] = test system: U-251
[14] = test system: OVCAR-3
[15] = test system: MCF7
[16] = test system: CCRF-CEM
[17] = test system: NCI-H522
[18] = test system: RPMI-8226
[19] = test system: LOX IMVI
[20] = test system: 786-0

Structure (SMILES) | GI50 [1] [µM] | GI50 [2] | GI50 [3] | GI50 [4] | GI50 [5] | GI50 [6] | GI50 [7] | GI50 [8] | GI50 [9] | GI50 [10] | GI50 [11] | GI50 [12] | GI50 [13] | GI50 [14] | GI50 [15] | GI50 [16] | GI50 [17] | GI50 [18] | GI50 [19] | GI50 [20]
Cc1ccc(N2CN3OC(=O)N(c4ccccc4)[C@@]3(c3ccccc3)C2)cc1 | 23.2 | 36.1 µM (inactive) | 80 µM (inactive) | 36.6 µM (inactive) | 36.1 µM (inactive) | 48.4 µM (inactive) | 29.4 µM (inactive) | 92 µM (inactive) | 26.2 µM (inactive) | 25.1 µM (inactive) | 22.3 µM (inactive) | 25.1 µM (inactive) | 30.5 µM (inactive) | 19.4 µM (inactive) | 33.7 µM (inactive) | 34.4 µM (inactive) | 10.1 µM (inactive) | 45.6 µM (inactive) | 37.5 µM (inactive) | 44.5 µM (inactive)
CCC1(O)CN(CCOC)[C@H]2C[C@@H]1C(=O)c1[nH]c3ccccc3c12 (stereo not given in full) | > 100 | > 100 µM (inactive) | > 100 µM (inactive) | > 100 µM (inactive) | > 100 µM (inactive) | > 100 µM (inactive) | > 100 µM (inactive) | > 100 µM (inactive) | > 100 µM (inactive) | > 100 µM (inactive) | > 100 µM (inactive) | > 100 µM (inactive) | > 100 µM (inactive) | > 100 µM (inactive) | > 100 µM (inactive) | > 100 µM (inactive) | > 100 µM (inactive) | > 100 µM (inactive) | > 100 µM (inactive) | > 100 µM (inactive)
CC(C)=CCc1c(O)c(CC=C(C)C)c2oc(-c3ccc(O)cc3O)c(CC=C(C)C)c(=O)c2c1O | 5.47 | 27.1 µM (inactive) | 6.1 µM (inactive) | 10.6 µM (inactive) | 9.06 µM (inactive) | 12.4 µM (inactive) | 16.3 µM (inactive) | 12.6 µM (inactive) | 7.06 µM (inactive) | 4.99 µM (inactive) | 4.05 µM (inactive) | 7.96 µM (inactive) | 9.12 µM (inactive) | 7.1 µM (inactive) | 3.98 µM (inactive) | 2.1 µM (inactive) | 7.31 µM (inactive) | 3.43 µM (inactive) | 5.26 µM (inactive) | 8.91 µM (inactive)
CC(C)/C(=N\[N+](C)(C)C)c1ccccc1 | > 100 | > 100 µM (inactive) | > 100 µM (inactive) | > 100 µM (inactive) | > 100 µM (inactive) | > 100 µM (inactive) | > 100 µM (inactive) | > 100 µM (inactive) | > 100 µM (inactive) | > 100 µM (inactive) | > 100 µM (inactive) | > 100 µM (inactive) | > 100 µM (inactive) | > 100 µM (inactive) | > 100 µM (inactive) | > 100 µM (inactive) | > 100 µM (inactive) | > 100 µM (inactive) | > 100 µM (inactive) | > 100 µM (inactive)
NC(=O)c1[nH]nc(C2OC(CO)C(O)C2O)c1O (stereo not given) | 0.5 | 16 µM (inactive) | 0.55 µM (active) | 101 µM (inactive) | 2.68 µM (inactive) | 0.5 µM (active) | 16.9 µM (inactive) | 2.6 µM (inactive) | 0.724 µM (active) | 8.99 µM (inactive) | 0.5 µM (active) | 0.851 µM (active) | 1.38 µM (inactive) | 19.6 µM (inactive) | 1.79 µM (inactive) | 0.507 µM (active) | 37.2 µM (inactive) | 0.682 µM (active) | 0.504 µM (active) | 0.5 µM (active)
